Patent publication US8476266B2, “Phenylacetic acid compound” (Ono Pharmaceutical Co., Ltd., priority 2007, dated 2013)

Experiments:
Human CYP3A4 = biological target: T1, Human CYP3A4 (Homo sapiens, UniProt P08684); experiment: Measurement of drug-metabolizing enzyme inhibitory activity (human CYP3A4 inhibitory effect), CYP3A4 expression system microsome, 7-BQ substrate; type: in vitro ADME; settings: 7-benzyloxyquinoline substrate, 37° C., 30 minutes
T1 construct: purchased BD Gentest
Procedure: A solution of the test compound having a concentration five hundred times more than the evaluation concentration in ethanol, or ethanol was 125-fold diluted by water. 50 μL of the test compound solution or the ethanol solution (control) was added with CYP3A4 substrate (7-benzyloxyquinoline (7-BQ), 40 μmol/L), magnesium chloride solution (5 mmol/L), and 100 μL, of 200 mM potassium phosphate buffer solution (pH 7.4) containing CYP3A4 expression system microsome (BD Gentest, 0.25 mg/mL), and preincubated at 37° C. for 10 minutes, then added with 50 μL, of reduced nicotinamide adenine dinucleotide phosphate (NADPH, final concentration 1 mmol/L) and incubated at 37° C. for 30 minutes. Immediately after the addition of NADPH, and after incubation, the fluorescence intensity was measured for 7-hydroxyquinoline which is a metabolite of the substrate (excitation wavelength 409 nm, emission wavelength 530 nm). The inhibition ratio against the control was calculated by the equation below. Inhibition rate(%)=[1-{(fluorescence intensity of the test compound after incubation−fluorescence intensity of the test compound immediately after addition of NADPH)/(fluorescence intensity of control after incubation−fluorescence intensity of control immediately after the addition of NADPH)}]×100.
IC50 was calculated from the equation below. IC50(μmol/L)=(50−(D×A−C×B)/(D−C))/((B−A)/(D−C)) • A: Highest inhibition rate (%) which is less than 50%. • B: Lowest inhibition rate (%) which is more than 50%. • C: Concentration (μmol/L) of the test compound when the inhibition rate is A. • D: Concentration (μmol/L) of the test compound when the inhibition rate is B.

[1] = biological target: T2, prostanoid receptor subtype (human EP2) (Homo sapiens, UniProt P43116); experiment: Receptor binding experiment using prostanoid receptor subtype expressing cell (3H-PGE2, CHO cell membrane); settings: 3H-PGE2 2.5 nM, read-out: Ki, EP2 receptor binding (3H-PGE2 binding inhibition)
T2 construct: expressed in transfected cells; host or cells: CHO cells
T2 sequence (P43116 whole entry): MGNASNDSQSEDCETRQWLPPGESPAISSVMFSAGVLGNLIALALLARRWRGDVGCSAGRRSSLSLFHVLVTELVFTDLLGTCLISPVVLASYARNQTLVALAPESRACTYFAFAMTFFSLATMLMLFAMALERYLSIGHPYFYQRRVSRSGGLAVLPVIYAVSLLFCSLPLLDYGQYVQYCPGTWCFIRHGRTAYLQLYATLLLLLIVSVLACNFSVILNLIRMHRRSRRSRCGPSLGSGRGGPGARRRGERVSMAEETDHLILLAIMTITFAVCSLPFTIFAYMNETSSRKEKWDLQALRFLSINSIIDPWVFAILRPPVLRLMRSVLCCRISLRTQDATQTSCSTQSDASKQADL
Procedure: According to the method of Sugimoto et. al. (J. Biol. Chem. 267, 6463-6466 (1992)), CHO cells in which prostanoid receptor subtype (human EP2) was expressed were prepared to obtain membrane preparation.
A reaction solution (200 μl) containing membrane fraction preparation (0.5 mg/ml) and ^3H-PGE2 was incubated at room temperature for one hour. The reaction was terminated by ice-cooled buffer (3 ml), bound ^3H-PGE2 was trapped on a glass filter (GF/B) by suction filtration at reduced pressure, and bound radioactivity was measured by a liquid scintillator.
The Kd value was calculated from Scatchard plots [Ann. N.Y. Acad. Sci. 51, 660 (1949)]. Nonspecific binding was determined as a bond in the presence of excessive amount (10 μM) of unlabeled PGE2. The measurement of ^3H-PGE2 binding inhibitory effect by the compound of the present invention was carried out by adding ^3H-PGE2 (2.5 nM) and the compound of the present invention at a variety of concentrations. Note that all reactions used the following buffer.
Buffer: potassium phosphate (10 mM, pH 6.0), EDTA (1 mM), MgCl2 (10 mM), NaCl (0.1 M).
Dissociation constant (Ki (μM)) of each compound was calculated from the following equation. Ki=IC50/(1+([C]/Kd) • IC50: Concentration of the compound of the present invention required for 50%-inhibition of [3H]PGE2 specific bond • C: Concentration of [3H]PGE2 • Kd: Dissociation constant of [3H]PGE2

DP receptor = biological target: T3, DP receptor (Homo sapiens, UniProt Q13258); experiment: Measurement of DP receptor antagonistic activity using human platelet-rich plasma (PRP); inhibition of PGD2-stimulated cAMP production; type: cell-based; settings: for IC50: human PRP, 3 μmol/L PGD2 stimulation; for binding activity against the DP receptor compared with the non-substituted compound (Comparative compound 1): in words
T3 construct: Blood was collected from the cubital vein of a healthy adult; endogenous in cells; host or cells: human platelets (platelet-rich plasma of a healthy adult donor)
T3 sequence (Q13258 1-359): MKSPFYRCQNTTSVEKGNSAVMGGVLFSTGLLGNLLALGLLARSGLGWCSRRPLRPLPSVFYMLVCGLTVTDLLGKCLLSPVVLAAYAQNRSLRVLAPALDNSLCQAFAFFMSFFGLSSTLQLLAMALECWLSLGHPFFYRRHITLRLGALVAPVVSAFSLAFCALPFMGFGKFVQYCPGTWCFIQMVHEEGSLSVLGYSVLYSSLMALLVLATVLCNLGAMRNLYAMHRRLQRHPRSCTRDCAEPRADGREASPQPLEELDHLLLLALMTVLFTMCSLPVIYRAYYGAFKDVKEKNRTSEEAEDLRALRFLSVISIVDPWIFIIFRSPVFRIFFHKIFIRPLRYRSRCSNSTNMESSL
Procedure: The collected blood was subjected to centrifugal separation at 100 G, at room temperature for 15 minutes to obtain PRP in the upper layer. EDTA was added to the obtained PRP so that the final concentration thereof to be about 10 mmol/L. The PRP was subjected to centrifugal separation at 1500 G, at room temperature for 15 minutes to obtain supernatant platelet poor plasma (PPP). After the obtained platelet pellets were suspended, the suspension was diluted with PPP so that the platelet density to be adjusted to 5.0×10^5/μL. To the obtained platelet suspension, 3-isobutyl-1-methylxanthine and prostanoid EP3 receptor antagonist were added so that the final concentrations thereof to be 8 mmol/L and 1 μmol/L, respectively.
297 μL of the prepared PRP was dispensed to each test tube, followed by subjecting to incubation at 37° C. for 5 minutes. After adding 1.5 μL of DMSO or a variety of concentrations of the compound of the present invention, 10 minutes of incubation was carried out at 37° C. 1.5 μL, of DMSO or PGD2 (final concentration: 3 μmol/L) was added thereto to initiate the reaction. After 15 minutes of incubation was carried out at 37° C., […] of ice-cooled 10% trichloroacetic acid (TCA) was added thereto to terminate the reaction. The TCA-treated sample was subjected to centrifugal separation at 15,000 G for 3 minutes at 4° C. The concentration of thus obtained supernatant cAMP was measured by enzyme immunoassay using cAMP EIA system (Amersham plc). 300 μL of the supernatant obtained above was mixed with 600 μL, of a solution of 0.5 mol/L tri-n-octylamine in chloroform. After extracting TCA in the organic layer, the cAMP content in the water layer sample was measured according to the method described in cAMP assay kit.

T1 sequence (P08684 whole entry): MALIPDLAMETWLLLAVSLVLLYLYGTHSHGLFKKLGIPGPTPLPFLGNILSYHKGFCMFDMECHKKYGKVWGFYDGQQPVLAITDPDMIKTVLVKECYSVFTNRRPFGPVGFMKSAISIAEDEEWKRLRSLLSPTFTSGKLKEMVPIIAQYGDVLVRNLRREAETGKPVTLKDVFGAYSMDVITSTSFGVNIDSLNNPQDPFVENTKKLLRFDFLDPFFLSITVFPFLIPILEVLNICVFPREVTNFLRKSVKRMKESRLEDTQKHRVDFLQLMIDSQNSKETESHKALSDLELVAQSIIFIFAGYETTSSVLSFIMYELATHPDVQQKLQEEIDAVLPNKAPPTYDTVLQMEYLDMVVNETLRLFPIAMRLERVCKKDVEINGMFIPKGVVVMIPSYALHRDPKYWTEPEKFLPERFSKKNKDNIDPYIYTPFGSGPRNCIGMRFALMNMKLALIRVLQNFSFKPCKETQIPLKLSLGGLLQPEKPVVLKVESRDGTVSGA

SMILES	IC50 (Human CYP3A4) [µM]	Ki [1] [µM]	IC50 (DP receptor) [µM]	binding activity against the DP receptor compared with the non-substituted compound (Comparative compound 1) (DP receptor)
Cc1cc(OC[C@@H]2CN(C)c3ccccc3O2)cc(C)c1C(=O)Nc1cccc(CC(=O)O)c1 [Comparative compound 1, (3-((2,6-dimethyl-4-(((2S)-4-methyl-3,4-dihydro-2H-1,4-benzoxazin-2-yl)methoxy)benzoyl)amino)phenyl)acetic acid]	≥ 30	0.0936	0.021	
Cc1ccc(CC(=O)O)cc1NC(=O)c1c(C)cc(OC[C@@H]2CN(C)c3ccccc3O2)cc1C [Comparative compound 2, (3-((2,6-dimethyl-4-(((2S)-4-methyl-3,4-dihydro-2H-1,4-benzoxazin-2-yl)methoxy)benzoyl)amino)-4-methylphenyl)acetic acid]	< 3			more increased binding activity
Cc1cc(OC[C@@H]2CN(C)c3ccccc3O2)cc(C)c1C(=O)Nc1cc(CC(=O)O)ccc1Cl [Comparative compound 3, (4-chloro-3-((2,6-dimethyl-4-(((2S)-4-methyl-3,4-dihydro-2H-1,4-benzoxazin-2-yl)methoxy)benzoyl)amino)phenyl)acetic acid]	19.7	0.0168	0.004	
Cc1cc(OC[C@@H]2CN(C)c3ccccc3O2)cc(C)c1C(=O)Nc1cc(C2(C(=O)O)CC2)ccc1Cl [Comparative compound 4, 1-(4-chloro-3-((2,6-dimethyl-4-(((2S)-4-methyl-3,4-dihydro-2H-1,4-benzoxazin-2-yl)methoxy)benzoyl)amino)phenyl)cyclopropanecarboxylic acid]	≥ 30	0.0018	0.0065	more increased binding activity
Cc1cc(OC[C@@H]2CN(C)c3ccccc3O2)cc(C)c1C(=O)Nc1cc(C2(C(=O)O)CC2)ccc1C(F)(F)F [Example 12, 1-(3-((2,6-dimethyl-4-(((2S)-4-methyl-3,4-dihydro-2H-1,4-benzoxazin-2-yl)methoxy)benzoyl)amino)-4-(trifluoromethyl)phenyl)cyclopropanecarboxylic acid]	≥ 30	0.142	0.0071	
CCc1cc(OC[C@@H]2CN(C)c3ccccc3O2)cc(C)c1C(=O)Nc1cc(C2(C(=O)O)CC2)ccc1C(F)(F)F [Example 21, 1-(3-((2-ethyl-6-methyl-4-(((2S)-4-methyl-3,4-dihydro-2H-1,4-benzoxazin-2-yl)methoxy)benzoyl)amino)-4-(trifluoromethyl)phenyl)cyclopropanecarboxylic acid]	≥ 30		0.0029	
Cc1cc(OC[C@@H]2CN(C)c3ccccc3O2)cc(C)c1C(=O)Nc1cc(CC(=O)O)ccc1C(F)(F)F [Example 24, (3-((2,6-dimethyl-4-(((2S)-4-methyl-3,4-dihydro-2H-1,4-benzoxazin-2-yl)methoxy)benzoyl)amino)-4-(trifluoromethyl)phenyl)acetic acid]	8.4		0.0089	
